What was measured:
Experiment in all cases: relative viability (nuclei count vs DMSO), 5 days (fraction); higher = more cells survive
[1] = compound: O=C(CCCCCCNC(=O)c1cnc(N(c2ccccc2)c2ccccc2)nc1)NO [Ricolinostat] + CC1(C)CCC(c2ccc(Cl)cc2)=C(CN2CCN(c3ccc(C(=O)NS(=O)(=O)c4ccc(N[C@H](CCN5CCOCC5)CSc5ccccc5)c(S(=O)(=O)C(F)(F)F)c4)cc3)CC2)C1 [Navitoclax] (partner 0.5 µM)
Outline: (§1)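 Lung cancer cell lines in 1536-well plates got either a single drug or a fixed anchor-drug dose together with five library-drug doses (not always all listed) in √10 steps, by pin tool, on the day after seeding. Nuclei were counted after 5 days, and relative viability is the treated-to-vehicle ratio of nuclei counts. Values are medians of duplicate plates.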

Ricolinostat + Foretinib = compound: O=C(CCCCCCNC(=O)c1cnc(N(c2ccccc2)c2ccccc2)nc1)NO [Ricolinostat] + COc1cc2c(Oc3ccc(NC(=O)C4(C(=O)Nc5ccc(F)cc5)CC4)cc3F)ccnc2cc1OCCCN1CCOCC1 [Foretinib] (partner 0.25 µM)
Outline: as §1

Ricolinostat + Dasatinib = compound: O=C(CCCCCCNC(=O)c1cnc(N(c2ccccc2)c2ccccc2)nc1)NO [Ricolinostat] + Cc1nc(Nc2ncc(C(=O)Nc3c(C)cccc3Cl)s2)cc(N2CCN(CCO)CC2)n1 [Dasatinib] (partner 0.075 µM)
Outline: as §1

[2] = compound: O=C(CCCCCCNC(=O)c1cnc(N(c2ccccc2)c2ccccc2)nc1)NO [Ricolinostat] + Nc1nc2[nH]cc(CCc3ccc(C(=O)N[C@@H](CCC(=O)O)C(=O)O)cc3)c2c(=O)[nH]1 [Pemetrexed] (partner 0.2 µM)
Outline: as §1

Row | Cell Line | relative viability ([1]; first compound 0.08 µM) | relative viability ([1]; first compound 0.253 µM) | relative viability ([1]; first compound 0.8 µM) | relative viability ([1]; first compound 2.53 µM) | relative viability (Ricolinostat + Foretinib; first compound 0.08 µM) | relative viability (Ricolinostat + Foretinib; first compound 0.253 µM) | relative viability (Ricolinostat + Foretinib; first compound 0.8 µM) | relative viability (Ricolinostat + Foretinib; first compound 2.53 µM) | relative viability (Ricolinostat + Dasatinib; first compound 0.08 µM) | relative viability (Ricolinostat + Dasatinib; first compound 0.253 µM) | relative viability (Ricolinostat + Dasatinib; first compound 0.8 µM) | relative viability (Ricolinostat + Dasatinib; first compound 2.53 µM) | relative viability ([2]; first compound 0.08 µM) | relative viability ([2]; first compound 0.253 µM) | relative viability ([2]; first compound 0.8 µM) | relative viability ([2]; first compound 2.53 µM)
1 | HARA | 1.1 | 1.1 | 1.09 | 1.11 | 0.968 | 0.901 | 0.767 | 0.646 | 0.271 | 0.224 | 0.217 | 0.192 | 0.254 | 0.256 | 0.213 | 0.274
2 | ChaGo-K-1 | 1.11 | 1.11 | 0.888 | 0.953 | 0.895 | 0.912 | 0.861 | 0.86 | 0.579 | 0.49 | 0.584 | 0.532 | 0.253 | 0.255 | 0.262 | 0.27
3 | HCC-366 | 0.831 | 0.957 | 1.06 | 0.978 | 0.915 | 0.837 | 0.975 | 0.817 | 0.487 | 0.613 | 0.576 | 0.451 | 0.172 | 0.153 | 0.202 | 0.156
4 | SW 1573 | 0.807 | 0.993 | 0.901 | 1.01 | 0.863 | 1.12 | 0.899 | 0.918 | 0.756 | 0.507 | 0.695 | 0.581 | 0.857 | 0.742 | 1.07 | 0.864
5 | SK-MES-1 | 1.07 | 1.22 | 1.21 | 1.23 | 0.782 | 0.946 | 0.928 | 0.917 | 0.25 | 0.288 | 0.451 | 0.44 | 0.878 | 0.982 | 0.876 | 0.91
6 | HCC-827 | 0.95 | 1.02 | 1.01 | 0.909 | 0.998 | 1.06 | 1.04 | 0.964 | 0.24 | 0.363 | 0.287 | 0.361 | 0.23 | 0.256 | 0.232 | 0.212
7 | EMC-BAC-2 | 1.04 | 1.09 | 1.2 | 1.2 | 0.905 | 1.03 | 0.942 | 0.851 | 0.316 | 0.291 | 0.27 | 0.242 | 0.44 | 0.414 | 0.38 | 0.308
8 | NCI-H2023 | 0.849 | 1.01 | 0.995 | 0.906 |  | 0.799 | 0.786 | 0.742 |  | 0.569 | 0.535 | 0.472 | 0.196 | 0.192 | 0.208 | 0.163
9 | NCI-H1993 | 0.798 | 1.11 | 1.01 | 1.04 |  | 0.893 | 0.854 | 0.856 |  | 0.558 | 0.61 | 0.671 | 0.549 | 0.581 | 0.615 | 0.547
10 | COR-L 105 | 0.688 | 0.833 | 0.828 | 0.722 |  | 0.874 | 0.917 | 1.16 |  | 0.368 | 0.397 | 0.401 | 0.901 | 1.08 | 1.2 | 1.24
11 | NCI-H596 | 0.951 | 0.954 | 0.858 | 0.887 | 0.922 | 0.825 | 0.857 | 0.924 | 0.586 | 0.553 | 0.613 | 0.494 | 0.511 | 0.527 | 0.504 | 0.52
12 | LK-2 | 0.841 | 0.898 | 0.811 | 0.842 | 1.18 | 1.35 | 1.51 | 0.934 | 0.34 | 0.271 | 0.444 | 0.35 | 0.217 | 0.256 | 0.231 | 0.216
13 | NCI-H520 |  | 1.11 | 1.01 | 1.02 |  | 0.889 | 0.89 | 0.688 |  | 0.313 | 0.211 | 0.231 |  | 0.762 | 0.744 | 0.628
14 | NCI-H322M |  | 1.2 | 1.27 | 1.08 |  | 0.964 | 0.893 | 0.928 |  | 0.275 | 0.26 | 0.255 | 0.61 | 0.607 | 0.639 | 0.646
15 | HCC-78 |  | 0.771 | 0.561 | 0.435 |  | 0.526 | 0.553 | 0.427 |  | 0.438 | 0.356 | 0.281 |  | 0.84 | 0.902 | 0.88
16 | NCI-H1395 |  | 1.13 | 1.32 | 1.27 |  | 0.954 | 1.07 | 1.06 |  | 0.383 | 0.368 | 0.403 |  | 0.801 | 0.804 | 0.746
17 | NCI-H2228 | 0.951 | 0.987 | 0.8 | 0.693 | 0.754 | 1.04 | 0.783 | 0.738 | 0.432 | 0.591 | 0.457 | 0.382 | 0.311 | 0.31 | 0.285 | 0.345
18 | NCI-H2009 | 1.14 | 1.11 | 1.09 | 1.07 | 1.16 | 1.19 | 1.2 | 1.05 | 0.231 | 0.295 | 0.347 | 0.365 | 0.977 | 1.02 | 0.965 | 0.92
19 | LXF-289 | 0.904 | 0.927 | 0.914 | 0.878 | 0.987 | 0.895 | 0.947 | 0.967 | 0.193 | 0.274 | 0.272 | 0.306 | 0.935 | 0.775 | 0.895 | 0.792
20 | NCI-H1975 | 1.07 | 1.1 |  | 0.877 | 1.04 | 0.975 | 0.822 | 0.917 | 0.402 | 0.354 | 0.307 | 0.381 | 0.329 | 0.279 | 0.277 | 0.269
